Source: patent publication US7528138B2, “Pyrazolo[1,5-a]pyrimidines useful as inhibitors of protein kinases” (Vertex Pharmaceuticals Incorporated, priority 2004, dated 2009)

What was measured:
Assay type in all cases: biochemical
c-Met = c-Met (Homo sapiens, UniProt P08581); assay: c-Met Inhibition Assay, coupled enzyme system; conditions: enzyme inhibition data (Ki), Table 11
Method in brief: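 Pyruvate kinase/lactate dehydrogenase-coupled NADH assay in HEPES pH 7.5 with 80 nM c-Met, 200 μM ATP and 10 μM polyGluTyr at 30° C. Compound (0.006–12.5 μM final, 12-point) preincubated 10 min before ATP start; rates over 10 min gave Ki.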

Itk = target: T1, Itk (Homo sapiens, UniProt Q08881); assay: ITK Inhibition Assay (Radiometric), radioactive-phosphate incorporation; conditions: enzyme inhibition data (Ki), Table 11; radiometric or UV assay not stated
T1 sequence (Q08881 1-620): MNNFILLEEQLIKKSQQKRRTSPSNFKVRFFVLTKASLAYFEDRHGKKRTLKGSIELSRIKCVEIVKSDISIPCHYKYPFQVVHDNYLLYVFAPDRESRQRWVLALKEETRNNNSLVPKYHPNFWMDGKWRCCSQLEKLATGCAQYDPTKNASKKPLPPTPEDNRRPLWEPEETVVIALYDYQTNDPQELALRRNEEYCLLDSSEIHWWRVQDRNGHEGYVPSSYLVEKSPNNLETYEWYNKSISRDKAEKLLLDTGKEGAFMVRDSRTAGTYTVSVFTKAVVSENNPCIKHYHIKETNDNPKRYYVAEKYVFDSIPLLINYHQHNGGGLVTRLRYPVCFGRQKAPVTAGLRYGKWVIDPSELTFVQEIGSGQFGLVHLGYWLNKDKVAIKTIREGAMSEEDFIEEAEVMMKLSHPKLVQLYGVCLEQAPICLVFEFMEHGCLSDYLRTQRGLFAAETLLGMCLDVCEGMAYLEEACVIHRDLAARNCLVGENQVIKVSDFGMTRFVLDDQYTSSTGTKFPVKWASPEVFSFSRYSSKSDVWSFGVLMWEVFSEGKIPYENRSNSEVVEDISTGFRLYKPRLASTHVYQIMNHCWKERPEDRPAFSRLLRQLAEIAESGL
Method in brief: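 Radiometric 33P incorporation into SAM68 peptide (D332-443) with filter capture and scintillation counting; 10 min pre-incubation then 10 min reaction at 25° C. IC50 format: 30 nM Itk, 15 μM ATP, 2 μM peptide, HEPES pH 7.5. Ki(app) format: 50 nM Itk, 7.5 μM ATP, 3 μM peptide, MOPS pH 7.0.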

JAK3 = target: T2, JAK3 (Homo sapiens, UniProt P52333); assay: JAK3 Inhibition Assay, 33P incorporation; conditions: enzyme inhibition data (Ki), Table 11
T2 sequence (P52333 1-1124): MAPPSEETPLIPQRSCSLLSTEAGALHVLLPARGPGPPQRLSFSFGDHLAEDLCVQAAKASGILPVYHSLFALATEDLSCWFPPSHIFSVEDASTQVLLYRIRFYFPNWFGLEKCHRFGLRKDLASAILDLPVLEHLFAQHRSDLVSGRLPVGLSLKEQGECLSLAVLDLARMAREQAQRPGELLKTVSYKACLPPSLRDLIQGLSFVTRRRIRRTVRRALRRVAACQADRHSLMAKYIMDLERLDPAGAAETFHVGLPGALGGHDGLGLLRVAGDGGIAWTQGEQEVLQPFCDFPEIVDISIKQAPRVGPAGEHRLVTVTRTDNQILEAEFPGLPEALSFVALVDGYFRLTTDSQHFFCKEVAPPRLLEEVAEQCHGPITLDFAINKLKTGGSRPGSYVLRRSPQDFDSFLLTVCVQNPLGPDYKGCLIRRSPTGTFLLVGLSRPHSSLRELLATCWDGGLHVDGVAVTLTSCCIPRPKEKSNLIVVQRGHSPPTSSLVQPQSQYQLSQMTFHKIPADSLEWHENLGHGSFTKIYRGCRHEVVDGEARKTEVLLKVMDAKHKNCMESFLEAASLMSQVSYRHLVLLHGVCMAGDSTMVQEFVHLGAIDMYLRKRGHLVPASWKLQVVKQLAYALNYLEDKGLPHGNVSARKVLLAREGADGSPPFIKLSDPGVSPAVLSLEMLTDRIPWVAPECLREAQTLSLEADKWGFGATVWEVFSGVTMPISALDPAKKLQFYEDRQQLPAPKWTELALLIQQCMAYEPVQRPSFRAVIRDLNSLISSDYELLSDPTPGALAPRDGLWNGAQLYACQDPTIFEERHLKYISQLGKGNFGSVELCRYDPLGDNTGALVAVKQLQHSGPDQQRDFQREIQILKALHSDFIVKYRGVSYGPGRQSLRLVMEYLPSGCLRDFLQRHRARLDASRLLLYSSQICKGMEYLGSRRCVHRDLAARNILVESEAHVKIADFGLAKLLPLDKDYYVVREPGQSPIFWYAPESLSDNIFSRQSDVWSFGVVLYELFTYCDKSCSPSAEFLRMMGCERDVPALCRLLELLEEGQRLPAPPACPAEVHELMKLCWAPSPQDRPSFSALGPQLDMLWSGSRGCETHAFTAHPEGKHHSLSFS
Method in brief: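 33P incorporation into 1 μM poly(Glu)4Tyr was counted after TCA stop and glass fiber filtration. The 20 min reaction ran at 25 °C with 1 nM JAK3 and 5 μM ATP (200 uCi/μmole). Buffer was 100 mM HEPES pH 7.4, 10 mM MgCl2, 25 mM NaCl, 1 mM DTT, 0.01% BSA.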

Chain of c-Met (P08581 25-1390): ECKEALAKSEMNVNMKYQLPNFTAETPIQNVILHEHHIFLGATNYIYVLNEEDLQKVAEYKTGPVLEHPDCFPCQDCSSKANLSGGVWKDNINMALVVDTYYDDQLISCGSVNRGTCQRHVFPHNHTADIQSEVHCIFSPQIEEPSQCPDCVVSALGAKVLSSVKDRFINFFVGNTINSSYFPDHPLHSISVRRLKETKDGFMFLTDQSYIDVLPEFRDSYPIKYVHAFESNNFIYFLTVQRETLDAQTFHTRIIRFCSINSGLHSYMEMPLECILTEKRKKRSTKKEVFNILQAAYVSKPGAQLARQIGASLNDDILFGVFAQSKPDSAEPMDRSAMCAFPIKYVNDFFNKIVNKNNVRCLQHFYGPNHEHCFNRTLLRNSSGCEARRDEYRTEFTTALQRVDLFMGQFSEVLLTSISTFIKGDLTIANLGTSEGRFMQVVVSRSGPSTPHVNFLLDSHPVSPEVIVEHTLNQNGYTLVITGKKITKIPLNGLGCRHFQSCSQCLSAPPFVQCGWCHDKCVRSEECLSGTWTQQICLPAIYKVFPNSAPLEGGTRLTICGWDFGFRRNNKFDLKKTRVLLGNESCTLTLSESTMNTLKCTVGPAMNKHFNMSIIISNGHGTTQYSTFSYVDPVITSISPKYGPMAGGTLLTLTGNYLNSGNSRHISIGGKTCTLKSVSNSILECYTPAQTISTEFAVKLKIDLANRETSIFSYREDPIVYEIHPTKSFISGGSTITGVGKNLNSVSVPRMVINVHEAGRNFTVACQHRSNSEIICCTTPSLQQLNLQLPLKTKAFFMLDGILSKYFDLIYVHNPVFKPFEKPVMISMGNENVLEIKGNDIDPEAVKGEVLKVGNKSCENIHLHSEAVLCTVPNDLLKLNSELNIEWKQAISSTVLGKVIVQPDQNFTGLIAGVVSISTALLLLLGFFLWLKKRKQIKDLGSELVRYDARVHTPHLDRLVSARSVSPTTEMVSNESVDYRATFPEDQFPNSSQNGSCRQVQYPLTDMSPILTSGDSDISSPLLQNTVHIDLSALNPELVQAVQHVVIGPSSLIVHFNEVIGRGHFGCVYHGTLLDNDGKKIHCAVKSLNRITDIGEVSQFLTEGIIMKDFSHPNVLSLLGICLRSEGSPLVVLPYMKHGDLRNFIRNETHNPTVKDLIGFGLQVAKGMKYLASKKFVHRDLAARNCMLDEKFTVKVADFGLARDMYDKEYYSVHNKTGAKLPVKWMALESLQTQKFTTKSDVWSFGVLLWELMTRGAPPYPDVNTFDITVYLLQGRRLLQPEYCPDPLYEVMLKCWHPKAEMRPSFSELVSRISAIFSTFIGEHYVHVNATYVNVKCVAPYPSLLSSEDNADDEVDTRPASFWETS

| SMILES | Ki (c-Met) | Ki (Itk) | Ki (JAK3) |
| --- | --- | --- | --- |
| Nc1nn2cc(-c3ccncn3)cnc2c1C(=O)N1CCCC1 [Compound V-45] | 500 to 5000 nM | 500 to 5000 nM | > 5 µM |
| Nc1nn2cc(-c3cccnc3N3CCC[C@H]3CO)cnc2c1-c1ccccn1 [Compound V-262] | 500 to 5000 nM | 500 to 5000 nM | > 5 µM |
| CN1CCN(c2ncccc2-c2cnc3c(-c4ccccn4)c(N)nn3c2)CC1 [Compound V-268] | 500 to 5000 nM | 500 to 5000 nM | > 5 µM |
| Nc1nn2cc(-c3ccccc3OCc3ccccc3)cnc2c1-c1ccccn1 [Compound V-56] | 500 to 5000 nM | 500 to 5000 nM | > 5 µM |
| CS(=O)(=O)Nc1ccccc1-c1cnc2c(-c3ccccn3)c(N)nn2c1 [Compound V-16] | 500 to 5000 nM | 500 to 5000 nM | > 5 µM |
| Nc1nn2cc(-c3ccncn3)cnc2c1-c1nncn1Cc1ccc(Cl)c(Cl)c1 [Compound V-136] | 500 to 5000 nM | 500 to 5000 nM | > 5 µM |
| COc1ccc(-c2cnc3c([N+](=O)[O-])c(N)nn3c2)cc1 [Compound V-239] | 500 to 5000 nM | 500 to 5000 nM | > 5 µM |
| Nc1nn2cc(CCCO)cnc2c1-c1ccccn1 [Compound V-310] | 500 to 5000 nM | 500 to 5000 nM | > 5 µM |
| Nc1nn2cc(-c3ccncn3)cnc2c1C(=O)NCc1ccc(F)cc1F [Compound V-32] | 500 to 5000 nM | 500 to 5000 nM | > 5 µM |
| Cc1cnc2c(-c3cc(N[C@H](CO)CC(C)C)ncn3)c(N)nn2c1 [Compound V-298] | < 500 nM | < 500 nM | 0.5 to 5 µM |
| Nc1nn2cc(CCCN3CC[C@H](O)C3)cnc2c1-c1ccccn1 [Compound V-325] | 500 to 5000 nM | 500 to 5000 nM | > 5 µM |
| CC(C)CN(C)c1ccc(-c2cnc3c(-c4ccccn4)c(N)nn3c2)cn1 [Compound V-172] | 500 to 5000 nM | 500 to 5000 nM | > 5 µM |
| Cc1n[nH]c(C)c1-c1cnc2c(-c3ccccn3)c(N)nn2c1 [Compound V-53] | < 500 nM | 500 to 5000 nM | > 5 µM |
| Cc1ccc(-c2cnc3c(-c4ccccc4Br)c(N)nn3c2)cc1 [Compound V-31] | 500 to 5000 nM | 500 to 5000 nM | > 5 µM |
| Nc1nn2cc(N3CCC[C@@H]3CN3CCCC3)cnc2c1-c1ccccn1 [Compound V-272] | 500 to 5000 nM | 500 to 5000 nM | > 5 µM |
| Cc1cnc2c(-c3cc(N4CCC(C(N)=O)CC4)ncn3)c(N)nn2c1 [Compound V-341] | 500 to 5000 nM | 500 to 5000 nM | 0.5 to 5 µM |
| CCC(C)Nc1cc(-c2c(N)nn3cc(C)cnc23)ncn1 (stereo not drawn) [Compound V-282] | < 500 nM | 500 to 5000 nM | 0.5 to 5 µM |
| CN1CCCN(C(=O)c2cccc(-c3cnc4c(-c5ccccn5)c(N)nn4c3)n2)CC1 [Compound V-105] | < 500 nM | 500 to 5000 nM | > 5 µM |
| Nc1nn2cc(-c3ccncc3)cnc2c1-c1cccc(Br)n1 [Compound V-137] | 500 to 5000 nM | 500 to 5000 nM | > 5 µM |
| Nc1nn2cc(CCCNC3CC3)cnc2c1-c1ccccn1 [Compound V-322] | 500 to 5000 nM | 500 to 5000 nM | > 5 µM |
| CCN(CC)CCN(C)C(=O)c1ccc(-c2cnc3c(-c4ccccn4)c(N)nn3c2)nc1 [Compound V-88] | < 500 nM | < 500 nM | 0.5 to 5 µM |

| SMILES | Ki (c-Met) | Ki (Itk) | Ki (JAK3) |
| --- | --- | --- | --- |
| CCCCNC(=O)c1ccc(-c2cnc3c(-c4ccccn4)c(N)nn3c2)nc1 [Compound V-77] | 500 to 5000 nM | 500 to 5000 nM | > 5 µM |
| CCCN(CCO)C(=O)c1cccc(-c2cnc3c(-c4ccccn4)c(N)nn3c2)n1 [Compound V-111] | < 500 nM | 500 to 5000 nM | > 5 µM |
| Nc1nn2cc(-c3ccnc(N4CCC[C@@H]4CO)c3)cnc2c1-c1ccccn1 [Compound V-251] | < 500 nM | 500 to 5000 nM | > 5 µM |
| COc1ccc(-c2cnc3c(-c4ccccn4)c(N)nn3c2)cn1 [Compound V-50] | < 500 nM | 500 to 5000 nM | > 5 µM |
| Nc1ccc(CNC(=O)c2cnc3c(-c4ccccn4)c(N)nn3c2)cc1 [Compound V-199] | 500 to 5000 nM | 500 to 5000 nM | > 5 µM |
| Nc1nn2cc(-c3ccncn3)cnc2c1C(=O)N[C@H](CO)c1ccccc1 [Compound V-46] | 500 to 5000 nM | 500 to 5000 nM | > 5 µM |
| Nc1nn2cc(-c3ccccc3OC(F)F)cnc2c1-c1ccccn1 [Compound V-19] | 500 to 5000 nM | 500 to 5000 nM | > 5 µM |
| Nc1nn2cc(-c3ccccc3C=O)cnc2c1-c1ccccn1 [Compound V-12] | 500 to 5000 nM | 500 to 5000 nM | > 5 µM |
| Nc1nn2cc(CCCN3CCCCC3)cnc2c1-c1ccccn1 [Compound V-312] | 500 to 5000 nM | 500 to 5000 nM | > 5 µM |
| CCCCNC(=O)c1cccc(-c2cnc3c(-c4ccccn4)c(N)nn3c2)n1 [Compound V-109] | < 500 nM | 500 to 5000 nM | > 5 µM |
| CCN(C)c1ccc(-c2cnc3c(-c4ccccn4)c(N)nn3c2)cn1 [Compound V-171] | < 500 nM | 500 to 5000 nM | > 5 µM |
| Nc1nn2cc(-c3ccc(C(=O)N4CCC[C@@H]4CN4CCCC4)cn3)cnc2c1-c1ccccn1 [Compound V-153] | < 500 nM | < 500 nM | 0.5 to 5 µM |
| Nc1nn2cc(-c3ccc(N4CCN(CCOCCO)CC4)nc3)cnc2c1-c1ccccn1 [Compound V-150] | < 500 nM | < 500 nM | > 5 µM |
| COc1ccc(-c2cnc3c(-c4ccccc4)c(N)nn3c2)cc1 [Compound V-186] | 500 to 5000 nM | < 500 nM | > 5 µM |
| Cc1cnc2c(-c3cc(N4CCC[C@H]4CO)ncn3)c(N)nn2c1 [Compound V-306] | < 500 nM | 500 to 5000 nM | 0.5 to 5 µM |
| Nc1nn2cc(-c3ccc(N4CCC(N5CCCC5)CC4)nc3)cnc2c1-c1ccccn1 [Compound V-164] | < 500 nM | < 500 nM | > 5 µM |
| Nc1nn2cc(-c3cccnc3N3CCC(CCO)CC3)cnc2c1-c1ccccn1 [Compound V-271] | 500 to 5000 nM | 500 to 5000 nM | > 5 µM |
| Nc1nn2cc(-c3cccnc3N3CCN(Cc4ccncc4)CC3)cnc2c1-c1ccccn1 [Compound V-264] | 500 to 5000 nM | 500 to 5000 nM | > 5 µM |
| CC(C)N(C)C(=O)c1cccc(-c2cnc3c(-c4ccccn4)c(N)nn3c2)n1 [Compound V-103] | < 500 nM | 500 to 5000 nM | > 5 µM |
| CC(C)CN(C)CCCc1cnc2c(-c3ccccn3)c(N)nn2c1 [Compound V-317] | 500 to 5000 nM | 500 to 5000 nM | > 5 µM |
